Laboratory results as given in patent publication US12264170B2, “Antimicrobial organosilanes” (TOPIKOS SCIENTIFIC, INC., priority 2019, dated 2025).

Experiments:
[1] = tested on: Candida albicans ATCC 90028; experiment: MIC microdilution assay (Example 32); format: cell-based; details: C. albicans ATCC 90028 (quality control); RPMI media; 35±2° C. 24 to 48 hours; two values given
Procedure: (§1) Strain IDs starting with “ATCC” were acquired from the American Type Culture Collection (Manassas, VA), strain IDs starting with “Eurofins” were acquired from Eurofins (Herndon, VA), while strain IDs starting with “CDC” were acquired from the Centers for Disease Control and Prevention (Atlanta, GA). All strains were maintained as −80° C. frozen glycerol stocks. S. aureus and P. aeruginosa were grown overnight on Tryptic Soy Agar (TSA) plates at 35±2° C., ambient atmosphere, while S. pyogenes was grown overnight on TSA+5% defibrinated sheep blood at 35±2° C., 5% CO2. C. jejuni was grown for 48 hours on TSA+5% defibrinated sheep blood at 35±2° C., in a microaerophilic environment generated by CampyGen sachet. All fungal species (i.e. C. albicans and C. auris) were grown overnight on Sabouraud Dextrose Agar (SDA) plates at 35±2° C., ambient atmosphere.
(§2) Test article Compound 1 (batch #7G30A9.203) was stored at 4° C. The antibiotic Tobramycin and antifungal Amphotericin B were used as quality control (QC) compounds for the MIC assay. Stock solutions of 3.2 mg/mL Tobramycin (Sigma-Aldrich, cat #T1783-500MG) and 3.2 mg/mL Amphotericin B (CP Lab Chemicals, cat #TOK-A007-1G) were prepared in sterile ultrapure water.
(§3) For bacteria strains, a few colonies of each strain were collected with a sterile swab and used to make a McFarland 0.5 standard solution (approximately 1×10^8 CFU/mL) in sterile PBS. The McFarland was then diluted 1:180 in Cation Adjusted Muller-Hinton Broth (CAMHB) for S. aureus and P. aeruginosa. S. pyogenes McFarland was diluted 1:180 in CAMHB+5% defibrinated sheep blood, while C. jejuni McFarland was diluted 1:180 in CAMHB+5% laked horse blood. 90 μL of this inoculum was combined with 10 μL of the 10× test article in a 96-well plate for a final concentration of 1×.
(§4) For the yeasts C. albicans and C. auris, a McFarland 0.5 standard solution in sterile PBS was similarly prepared (approximately 1×10^6 CFU/mL) and was subsequently diluted 1:180 in RPMI 1640 media buffered with 0.165 M MOPS at pH 7.0 (herein referred to as “RPMI media”). 90 μL of the Candida inoculum was combined with 10 μL of the 10× test article in a 96-well plate for a final concentration of 1×.
(§5) Except for C. jejuni, all bacterial-strain MIC 96-well plates were incubated at 35±2° C. for 18 to 20 hours, ambient atmosphere. C. jejuni was incubated at 35±2° C. for 48 hours, under microaerophilic condition. All Candida MIC 96-well plates were incubated at 35±2° C. for 24 to 48 hours, ambient atmosphere, until growth in control wells were observed. After incubation, the 96-well plates were examined visually and on a spectrophotometer at absorbance OD650. MIC is defined as the lowest concentration of a compound in which no visible growth is observed.

Candida auris CDC 0385 [2] = experiment: MIC microdilution assay (Example 32); format: cell-based; details: C. auris CDC 0385; RPMI media; 35±2° C. 24 to 48 hours; two values given
Procedure: as §1, §2, §3, §4, §5

Candida albicans = experiment: Disk diffusion susceptibility test; format: cell-based
Aspergillus niger = experiment: Disk diffusion susceptibility test; format: cell-based
[3] = tested on: Pseudomonas aeruginosa CDC 0248; experiment: MBC/MFC determination (Example 32); format: cell-based; details: P. aeruginosa CDC 0248; plated after 18 to 20 hours incubation; two values given
Procedure: (§6) 10 μL of liquid from each test condition was plated on the appropriate agar media for each test strain. Except for C. jejuni, all other strains were plated for MBC/MFC after 18 to 20 hours incubation, or until growth in growth control wells were visually observed. MBC for C. jejuni was plated 48 hours after incubation of the 96-well plate. Once the liquid from the 96-well plate has been allowed to air dry in a biosafety cabinet, the agar plates were incubated under the appropriate conditions and colony formation was assessed. MBC/MFC is defined as the lowest concentration of a compound in which no colonies were recovered.

[4] = tested on: Pseudomonas aeruginosa Eurofins 1674623; experiment: MBC/MFC determination (Example 32); format: cell-based; details: P. aeruginosa Eurofins 1674623; plated after 18 to 20 hours incubation; two values given
Procedure: as §6

[5] = tested on: Candida albicans ATCC 90028; experiment: MBC/MFC determination (Example 32); format: cell-based; details: C. albicans ATCC 90028; plated after 18 to 20 hours incubation or until growth in control wells; two values given
Procedure: as §6

Candida auris CDC 0385 [6] = experiment: MBC/MFC determination (Example 32); format: cell-based; details: C. auris CDC 0385; plated after 18 to 20 hours incubation or until growth in control wells; two values given
Procedure: as §6

[7] = tested on: Acinetobacter baumannii Eurofins 1674627; experiment: MBC/MFC determination (Example 32); format: cell-based; details: A. baumannii Eurofins 1674627; plated after 18 to 20 hours incubation; two values given
Procedure: as §6

[8] = tested on: Streptococcus pyogenes Eurofins 2065755; experiment: MBC/MFC determination (Example 32); format: cell-based; details: S. pyogenes Eurofins 2065755; plated after 18 to 20 hours incubation; two values given
Procedure: as §6

[9] = tested on: Campylobacter jejuni CDC 0413; experiment: MBC/MFC determination (Example 32); format: cell-based; details: C. jejuni CDC 0413; plated 48 hours after incubation; two values given
Procedure: as §6

[10] = tested on: Pseudomonas aeruginosa ATCC 27853; experiment: MBC/MFC determination (Example 32); format: cell-based; details: P. aeruginosa ATCC 27853; plated after 18 to 20 hours incubation; two values given
Procedure: as §6

Fusarium oxysporum = experiment: Disk diffusion susceptibility test; format: cell-based
Staphylococcus aureus = experiment: Disk diffusion susceptibility test; format: cell-based; details: repeated experiment, FIG. 2
Enterococcus faecalis = experiment: Disk diffusion susceptibility test; format: cell-based
[11] = tested on: Pseudomonas aeruginosa CDC 0248; experiment: MIC microdilution assay (Example 32); format: cell-based; details: P. aeruginosa CDC 0248; CAMHB; 35±2° C. 18 to 20 hours; two values given
Procedure: as §1, §2, §3, §5

[12] = tested on: Pseudomonas aeruginosa Eurofins 1674623; experiment: MIC microdilution assay (Example 32); format: cell-based; details: P. aeruginosa Eurofins 1674623; CAMHB; 35±2° C. 18 to 20 hours; two values given
Procedure: as §1, §2, §3, §5

[13] = tested on: Streptococcus pyogenes Eurofins 2065755; experiment: MIC microdilution assay (Example 32); format: cell-based; details: S. pyogenes Eurofins 2065755; CAMHB+5% defibrinated sheep blood; 35±2° C. 18 to 20 hours; two values given
Procedure: as §1, §2, §3, §5

[14] = tested on: Pseudomonas aeruginosa ATCC 27853; experiment: MIC microdilution assay (Example 32); format: cell-based; details: P. aeruginosa ATCC 27853 (quality control); CAMHB; 35±2° C. 18 to 20 hours; two values given
Procedure: as §1, §2, §3, §5

Mycoplasma pneumoniae = experiment: Disk diffusion susceptibility test; format: cell-based; details: repeated experiment, FIG. 2
[15] = tested on: Proteus mirabilis and Pseudomonas aeruginosa; experiment: Treatment of ocular infection in a dog; format: in vivo; details: male bull dog, 2% aqueous solution 3 times per day; for examination of the eyes: infection in both eyes
Procedure: A male bull dog presented with an infection in both eyes which was cultured and tested positive for Proteus mirabilis and Pseudomonas aeruginosa. The dog was administered a 2% aqueous solution of Compound 1 at a rate of 3 times per day for 7 days. […] On day 6, the dog was reexamined. […] To verify, a swab of the eye was taken and cultured. The culture was negative for both Proteus mirabilis and Pseudomonas aeruginosa.

[16] = 10 mg/mL, repeated experiment, FIG. 2
[17] = 100 mg/mL, repeated experiment, FIG. 2

CCCCCCCCCCCCCCCCCC[N+](C)(C)CCC[Si](OCC(CO)(CO)NCCS(=O)(=O)[O-])(OCC(CO)(CO)NCCS(=O)(=O)[O-])OCC(CO)(CO)NCCS(=O)(=O)O.[Cl-].[Na+].[Na+] [Compound 1]
MIC [1]: 1 µg/mL | MIC (Candida auris CDC 0385 [2]): 1 µg/mL | inhibition (zone of inhibition), disk diffusion (Candida albicans; [16]): complete inhibition | inhibition (zone of inhibition), disk diffusion (Candida albicans; [17]): complete inhibition | inhibition (zone of inhibition), disk diffusion (Candida albicans; 1% aqueous solution, FIG. 1): complete inhibition | inhibition (zone of inhibition), disk diffusion (Candida albicans; 2% aqueous solution, FIG. 1): complete inhibition | inhibition (zone of inhibition), disk diffusion (Aspergillus niger; [16]): complete inhibition | inhibition (zone of inhibition), disk diffusion (Aspergillus niger; [17]): complete inhibition | inhibition (zone of inhibition), disk diffusion (Aspergillus niger; 1% aqueous solution, FIG. 1): complete inhibition | inhibition (zone of inhibition), disk diffusion (Aspergillus niger; 2% aqueous solution, FIG. 1): complete inhibition | MBC [3]: >64 µg/mL | MBC [4]: >64 µg/mL | MBC [5]: 1 µg/mL | MBC (Candida auris CDC 0385 [6]): 2 µg/mL | MBC [7]: 64 µg/mL | MBC [8]: 8 µg/mL | MBC [9]: 32 µg/mL | MBC [10]: >64 µg/mL | inhibition (zone of inhibition), disk diffusion (Fusarium oxysporum; [16]): complete inhibition | inhibition (zone of inhibition), disk diffusion (Fusarium oxysporum; [17]): complete inhibition | inhibition (zone of inhibition), disk diffusion (Fusarium oxysporum; 1% aqueous solution, FIG. 1): complete inhibition | inhibition (zone of inhibition), disk diffusion (Fusarium oxysporum; 2% aqueous solution, FIG. 1): complete inhibition | inhibition (zone of inhibition), disk diffusion (Staphylococcus aureus; 1 mg/mL): complete inhibition | inhibition (zone of inhibition), disk diffusion (Staphylococcus aureus; 10 mg/mL): complete inhibition | inhibition (zone of inhibition), disk diffusion (Staphylococcus aureus; 100 mg/mL): complete inhibition | inhibition (zone of inhibition), disk diffusion (Enterococcus faecalis; 1 mg/mL, repeated experiment, FIG. 2): complete inhibition | inhibition (zone of inhibition), disk diffusion (Enterococcus faecalis; [16]): complete inhibition | inhibition (zone of inhibition), disk diffusion (Enterococcus faecalis; [17]): complete inhibition | inhibition (zone of inhibition), disk diffusion (Enterococcus faecalis; 1% aqueous solution, FIG. 1): complete inhibition | inhibition (zone of inhibition), disk diffusion (Enterococcus faecalis; 2% aqueous solution, FIG. 1): complete inhibition | MIC [11]: >64 µg/mL | MIC [12]: >64 µg/mL | MIC [13]: 8 µg/mL | MIC [14]: >64 µg/mL | inhibition (zone of inhibition), disk diffusion (Mycoplasma pneumoniae; 1 mg/mL): complete inhibition | inhibition (zone of inhibition), disk diffusion (Mycoplasma pneumoniae; 10 mg/mL): complete inhibition | inhibition (zone of inhibition), disk diffusion (Mycoplasma pneumoniae; 100 mg/mL): complete inhibition | examination of the eyes ([15]; day 2): signs of reduced infection | examination of the eyes ([15]; day 6): no sign of infection | culture of eye swab for Proteus mirabilis and Pseudomonas aeruginosa ([15]; swab at day 6): negative
